This experiment concerns Broiler chicken. Nature of the experiment: Broiler growth test over 42 days with additives in animal feed or drinking water (AEW, FCR). The note with it: for D 0-42 AEW (average final weight of the broilers at day 42): Poor Feed day 0-13 then Rich Feed to day 42, average of 5 pens; for Ranking AEW 42 / Ranking FCR 42: compared to Rich feed standard test = 100%; for D 0-42 FCR (conversion of feed to chicken weight): lower is better. Format: in vivo. As to the method: Broiler chicken were grown during 42 days, with and without the abovementioned compositions being added to either the animal feed, or the drinking water.
By the end of the test period of 42 days, the final weight of the broiler was determined, this is the AEW (Average End Weight), as well as the degree of conversion of feed to chicken weight, this is the FCR (Feed Conversion Rate). The latter parameter indicates the amount of feed a broiler chicken should eat per kilogram of final weight of the animal. The lower this parameter, the more efficient the chicken has been fed. This parameter is influenced by the way the animal feed is digested by the intestinal tract or metabolism of the chicken, but also by the way the feed offered to the chicken is effectively accepted by the animal. The latter to a large extent is determined by the taste of the feed offered. To the extent the taste of the feed offered is positively acknowledged by the chicken, less feed is removed by the animal; so dependent on the taste of the feed, more or less of the feed is discarded by the chicken.
The tests were performed on groups of each time 20 broilers for each pen.
Each test was repeated on each time five pens, so each test was performed on in total 100 broilers.
Each value represents an average amount of the results obtained for each set of the five pens.
It is then added to the feed as a powdery compound. In practice it is much easier to mix such a powdery composition with the animal feed, as compared to the addition of a fluid to the feed. • The next two columns show the results of the test, expressed as final weight of the animal, in this case a broiler chicken. • The column with the heading D 0-42 AEW denotes the average final weight of the broilers at day 42 (Average End Weight). The higher the value for this parameter, the better. • The column with the title Ranking AEW 42 denotes, expressed as a percentage, the result of the test in terms of AEW, as compared to the standard test, corresponding to a standard value set at 100%. • The last two columns set forth the results of the test, expressed differently, namely as a measure for the conversion of the feed in meat-resp. increase of weight of the animal, as set forth above. • The column with the title D 0-42 FCR denotes the average value of the conversion of feed to weight of the animal. The lower the value for this parameter, the better. The lower the value, the more efficient the conversion of feed into animal meat has been performed. • The column with the heading Ranking FCR 42 denotes, expressed as a percentage, the result of the test with respect to FCR, as compared to the standard test, which has been allocated the value of 100%.
The feed that has been fed to the broilers in the various tests comprises two different embodiments: • a first type of feed is the so-called ‘Poor Feed’: this is a normal, customary feed that is being fed to the broilers, whereby no forced growth and feed conversion is to be expected, and whereby also no particular duty on the intestinal tract of the broilers is imposed. Differently phrased, the broilers have no difficulty in digesting this feed, and the younger broilers grow in a normal path to fully-grown adult animals. • a second type of feed is the so-called ‘Rich Feed’: this is a feed particularly high in energy and proteins, to which a component has been added that results in a more viscous intestine content. The result of the use of this type of feed is that the growth of the broilers is intensified, but it also results in a heavier load on the intestinal tract. So the intestines of the broilers should work harder to fully digest the feed absorbed by the animal. In this case the risk of disturbing the bacterial balance in the intestinal tract is substantially higher. Such an imbalance in bacteria (dysbacteriosis) may be a cause of diseases with resulting adverse effects. […]

Where [1] appears, read: via drinking water, dosage 2.22 Kg/Ton.
The mark [2] stands for this setting: TVN 5 mg/KgLW via drinking water, dosage 0.04 Kg/Ton.

Results on three molecules are retold here after patent publication US10398155B2, “Animal feed comprising a combination of mono glycerides” (Proviron Holding N.V., priority 2013, dated 2019).

The structures appear in SMILES notation.

Consider `CCCCCCCCCCCC(=O)OCC(O)CO` (centres unmarked) [Comp 1, monolaurin], for which, for the setting “dosage 1.2 Kg/Ton of feed”, the “D 0-42 AEW (average final weight of the broilers at day 42)” value (“D 0-42 AEW” below) amounted to 2.55 kg, the “Ranking AEW 42” value is recorded as 97% and the “Ranking FCR 42” value was 104.6%. Further, the “D 0-42 FCR (conversion of feed to chicken weight)” value (from here on “D 0-42 FCR”) (dosage 1.2 Kg/Ton of feed, day 0-42) was 1.74. For the same molecule, under “dosage 2.4 Kg/Ton of feed”, the “D 0-42 AEW” value came to 2.65 kg, the “Ranking AEW 42” value came to 101% and the “Ranking FCR 42” value is reported as 101.3%. For the same molecule, the “D 0-42 FCR” value (dosage 2.4 Kg/Ton of feed, day 0-42) was 1.69.

Turning to `CCCC(=O)OCC(O)CO` (centres unmarked) [Comp 4, monobutyrin], the “D 0-42 AEW” value is reported as 2.68 kg (dosage 2 Kg/Ton of feed), 2.63 kg (dosage 4 Kg/Ton of feed) and 2.65 kg under setting [1]. Also, the “Ranking AEW 42” value reads like this: (dosage 2 Kg/Ton of feed) 102%; (dosage 4 Kg/Ton of feed) 100%; under setting [1], 101%. Besides, the “Ranking FCR 42” value runs as follows: (dosage 2 Kg/Ton of feed) 97.9%; (dosage 4 Kg/Ton of feed) 101.9%; under setting [1], 98.6%. In addition, the “D 0-42 FCR” value (dosage 2 Kg/Ton of feed, day 0-42) was determined as 1.63; the “D 0-42 FCR” value (dosage 4 Kg/Ton of feed, day 0-42) turned out to be 1.70; the “D 0-42 FCR” value (via drinking water, dosage 2.22 Kg/Ton, day 0-42) was 1.64.

`CC[C@H]1OC(=O)C[C@@H](OC(C)=O)[C@H](C)[C@@H](O[C@@H]2O[C@H](C)[C@@H](O[C@H]3C[C@@](C)(O)[C@@H](OC(=O)CC(C)C)[C@H](C)O3)[C@H](N(C)C)[C@H]2O)[C@@H](CC=O)C[C@@H](C)C(=O)/C=C/C(C)=C/[C@@H]1CO[C@@H]1O[C@H](C)[C@@H](O)[C@@H](OC)[C@H]1OC` [Ref 3, Tylvalosin]: where the note is “Rich Feed with addition of TVN”, the “average increase in weight per day of the broilers” value is 66.3 gr. Besides, under setting [2], the “D 0-42 AEW” value was found to be 2.79 kg, the “Ranking AEW 42” value was 106% and the “Ranking FCR 42” value worked out at 96.6%. For the same molecule, the “Ranking AEW 42” value (TVN 5 mg/KgLW via drinking water, dosage 0.04 Kg/Ton, listed as Tylvalosin) is recorded as 105.53%. In addition, the “D 0-42 FCR” value (TVN 5 mg/KgLW via drinking water, dosage 0.04 Kg/Ton, entire period day 0-42) is given as 1.61.
